Test results: patent US20240279237A1, “FUSED BICYCLIC HETEROARYL COMPOUNDS USEFUL AS NLRP3 INHIBITORS” (Hoffmann-La Roche Inc., priority 2021, published 2024)

Biological target: T1, NLRP3 (Homo sapiens, UniProt Q96P20)
T1 construct: Seed THP-1 cells (25,000 cells/well) containing 1.0 μg/ml LPS in 40 μl of RPMI medium; host or cells: THP-1 cells
Assay: THP-1 Cells Pyroptosis Assay
Assay type: cell-based
Conditions: THP-1 cells with 1.0 μg/ml LPS; compound 3 hours; nigericin 5 μM 1 hr; resazurin readout
Outline: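 THP-1 cells in serum-free RPMI primed with LPS (1 μg/ml FAC), incubated with compound 3 h at 37 °C, then nigericin (5 μM FAC) for 1 h. Supernatant removed after spin; viability read by resazurin (100 μM FAC) reduction after a further 1-2 h at 37 °C.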

T1 sequence (Q96P20 whole entry): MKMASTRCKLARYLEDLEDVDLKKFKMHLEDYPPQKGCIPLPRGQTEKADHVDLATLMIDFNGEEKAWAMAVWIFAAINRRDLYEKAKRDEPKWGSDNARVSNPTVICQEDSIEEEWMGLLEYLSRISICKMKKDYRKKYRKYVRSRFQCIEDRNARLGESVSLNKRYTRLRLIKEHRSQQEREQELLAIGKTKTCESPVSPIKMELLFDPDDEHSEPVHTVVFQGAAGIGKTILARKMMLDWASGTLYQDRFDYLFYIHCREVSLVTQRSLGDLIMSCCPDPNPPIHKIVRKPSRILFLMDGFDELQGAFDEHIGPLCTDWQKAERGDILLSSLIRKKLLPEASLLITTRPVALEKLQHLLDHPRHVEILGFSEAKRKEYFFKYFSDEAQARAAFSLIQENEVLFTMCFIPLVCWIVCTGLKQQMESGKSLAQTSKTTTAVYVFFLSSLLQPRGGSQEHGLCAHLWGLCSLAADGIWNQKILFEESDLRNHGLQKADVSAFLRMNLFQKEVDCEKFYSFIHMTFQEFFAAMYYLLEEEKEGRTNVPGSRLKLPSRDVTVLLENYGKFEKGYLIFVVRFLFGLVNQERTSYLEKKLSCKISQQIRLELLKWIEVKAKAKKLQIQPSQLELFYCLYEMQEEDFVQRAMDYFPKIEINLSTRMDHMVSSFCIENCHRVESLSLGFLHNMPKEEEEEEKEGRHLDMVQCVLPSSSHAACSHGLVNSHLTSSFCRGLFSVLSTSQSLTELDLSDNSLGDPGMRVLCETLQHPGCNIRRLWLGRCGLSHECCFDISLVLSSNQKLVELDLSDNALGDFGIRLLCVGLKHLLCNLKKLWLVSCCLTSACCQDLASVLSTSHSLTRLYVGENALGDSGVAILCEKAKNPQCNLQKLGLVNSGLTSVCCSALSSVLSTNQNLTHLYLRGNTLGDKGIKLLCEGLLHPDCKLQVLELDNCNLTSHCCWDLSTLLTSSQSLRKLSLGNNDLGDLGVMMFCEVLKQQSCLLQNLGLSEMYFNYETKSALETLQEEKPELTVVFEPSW

| SMILES | IC50 [µM] |
| --- | --- |
| CCN1C[C@@H](O)C[C@@H](Nc2nc3nc(-c4c(C)cc(C)cc4O)ccc3o2)C1 [Example 70] | 0.0038 |
| CCN1C[C@H](O)C[C@@H](Nc2nc3nc(-c4c(C)cc(C#N)cc4O)ccc3o2)C1 [Example 71, 4-[2-[[(3R,5R)-1-Ethyl-5-hydroxy-3-piperidyl]amino]oxazolo[4,5-b]pyridin-5-yl]-3-hydroxy-5-methyl-benzonitrile] | 0.0011 |
| Cc1cc(Cl)cc(O)c1-c1ccc2oc(C3CCC(=O)NC3)nc2n1 (stereo not shown) [Example 73, 5-[5-(4-Chloro-2-hydroxy-6-methyl-phenyl)oxazolo[4,5-b]pyridin-2-yl]piperidin-2-one] | 0.03 |
| Cc1cc(Cl)cc(O)c1-c1ccc2oc(N[C@@H]3CCCN(CCC(F)F)C3)nc2n1 [Example 74, 5-Chloro-2-[2-[[(3R)-1-(3,3-difluoropropyl)-3-piperidyl]amino]oxazolo[4,5-b]pyridin-5-yl]-3-methyl-phenol] | 0.0092 |
| Cc1cc(Cl)cc(O)c1-c1ccc2oc(N[C@@H]3CCCN(CC4CC(O)C4)C3)nc2n1 (stereo partly drawn) [Example 75, 5-Chloro-3-methyl-2-[2-[[(3R)-1-[(3-hydroxycyclobutyl)methyl]-3-piperidyl]amino]oxazolo-[4,5-b]pyridin-5-yl]phenol] | 0.0208 |
| Cc1cc(Cl)cc(O)c1-c1ccc2oc(NCc3ncc[nH]3)nc2n1 [Example 76, 5-Chloro-2-[2-(1H-imidazol-2-ylmethylamino)oxazolo[4,5-b]pyridin-5-yl]-3-methyl-phenol] | 0.143 |
| Cc1cc(C(F)(F)F)cc(O)c1-c1ccc2oc(N3CCCC(CO)C3)nc2n1 (stereo not shown) [Example 77, 2-[2-[3-(Hydroxymethyl)-1-piperidyl]oxazolo[4,5-b]pyridin-5-yl]-3-methyl-5-(trifluoromethyl)phenol] | 0.135 |
| Cc1cc(C(F)(F)F)cc(O)c1-c1ccc2oc(N3CCC(CO)CC3)nc2n1 [Example 78, 2-[2-[4-(Hydroxymethyl)-1-piperidyl]oxazolo[4,5-b]pyridin-5-yl]-3-methyl-5-(trifluoromethyl)phenol] | 0.0583 |
| CCN1CCC12CCN(c1nc3nc(-c4c(C)cc(C(F)(F)F)cc4O)ccc3o1)CC2 [Example 79, 2-[2-(1-Ethyl-1,7-diazaspiro[3.5]nonan-7-yl)oxazolo[4,5-b]pyridin-5-yl]-3-methyl-5-(trifluoromethyl)phenol] | 0.0949 |
| CCN1CC2OCCN(c3nc4nc(-c5c(C)cc(C#N)cc5O)ccc4o3)C2C1 [Example 80, 3-Hydroxy-5-methyl-4-[2-[rel-(4aS,7aR)-6-ethyl-2,3,4a,5,7,7a-hexahydropyrrolo[3,4-b][1,4]oxazin-4-yl]oxazolo[4,5-b]pyridin-5-yl]benzonitrile] | 0.11 |
| Cc1cc(C#N)cc(O)c1-c1ccc2oc(N3CCCC4CCN(C)CC43)nc2n1 (stereo not shown) [Example 81, 3-Hydroxy-5-methyl-4-[2-(7-methyl-2,3,4,4a,5,6,8,8a-octahydro-1,7-naphthyridin-1-yl)oxazolo[4,5-b]pyridin-5-yl]benzonitrile] | 0.0723 |
| Cc1ccc(C#N)c(O)c1-c1ccc2oc(N[C@@H]3CCCN(C)C3)nc2n1 [Example 82, 2-Hydroxy-4-methyl-3-[2-[[(3R)-1-methyl-3-piperidyl]amino]oxazolo[4,5-b]pyridin-5-yl]benzonitrile;2,2,2-trifluoroacetic acid] | 0.128 |
| Cc1cc(Cl)cc(O)c1-c1ccc2oc(CC3CCCN(C)C3)nc2n1 (stereo not shown) [Example 83, 5-Chloro-3-methyl-2-[2-[(1-methyl-3-piperidyl)methyl]oxazolo[4,5-b]pyridin-5-yl]phenol] | 0.0051 |
| COC(=O)CCCN1CCC[C@@H](Nc2nc3nc(-c4c(C)cc(Cl)cc4O)ccc3o2)C1 [Example 84, Methyl 4-[(3R)-3-[[5-(4-chloro-2-hydroxy-6-methyl-phenyl)oxazolo[4,5-b]pyridin-2-yl]amino]-1-piperidyl]butanoate] | 0.0008 |
| Cc1cc(C#N)cc(O)c1-c1ccc2oc(N[C@@H]3CCCN(CCO)C3)nc2n1 [Example 85, 3-Hydroxy-4-[2-[[(3R)-1-(2-hydroxyethyl)-3-piperidyl]amino]oxazolo[4,5-b]pyridin-5-yl]-5-methyl-benzonitrile] | 0.0154 |
| Cc1cc(Cl)cc(O)c1-c1ccc2oc(NC3CCC(CO)N(C)C3)nc2n1 (stereo not shown) [Example 87, 5-Chloro-2-[2-[[6-(hydroxymethyl)-1-methyl-3-piperidyl]amino]oxazolo[4,5-b]pyridin-5-yl]-3-methyl-phenol;2,2,2-trifluoroacetic acid] | 0.0756 |
| Cc1cc(Cl)cc(O)c1-c1ccc2oc(CC3CN(C(C)C)CCO3)nc2n1 (stereo not shown) [Example 88, 5-Chloro-2-[2-[(4-isopropylmorpholin-2-yl)methyl]oxazolo[4,5-b]pyridin-5-yl]-3-methyl-phenol;formic acid] | 0.006 |

| SMILES | IC50 [µM] |
| --- | --- |
| Cc1cc(S(C)(=O)=O)cc(O)c1-c1ccc2oc(N[C@@H]3CCCN(C)C3)nc2n1 [Example 89, 3-Methyl-2-[2-[[(3R)-1-methyl-3-piperidyl]amino]oxazolo[4,5-b]pyridin-5-yl]-5-methylsulfonyl-phenol;2,2,2-trifluoroacetic acid] | 0.536 |
| COCCN(c1nc2nc(-c3c(C)cc(Cl)cc3O)ccc2o1)[C@@H]1CCCN(C)C1 [Example 90, 5-Chloro-2-[2-[2-methoxyethyl-[(3R)-1-methyl-3-piperidyl]amino]oxazolo[4,5-b]pyridin-5-yl]-3-methyl-phenol;formic acid] | 0.0226 |
| CCN1CCCC[C@@H](Nc2nc3nc(-c4c(C)cc(C(F)(F)F)cc4O)ccc3o2)C1 [Example 91, 2-[2-[[(3R)-1-Ethylazepan-3-yl]amino]oxazolo[4,5-b]pyridin-5-yl]-3-methyl-5-(trifluoromethyl)phenol] | 0.0049 |
| Cc1cc(Cl)cc(O)c1-c1ccc2oc(NCC3CC(O)C3)nc2n1 (stereo not shown) [Example 92, 5-Chloro-2-[2-[(3-hydroxycyclobutyl)methylamino]oxazolo[4,5-b]pyridin-5-yl]-3-methyl-phenol] | 0.0269 |
| Cc1cc(Cl)cc(O)c1-c1ccc2oc(N[C@@H]3CCCN(CCO)C3)nc2n1 [Example 93, 5-Chloro-2-[2-[[(3R)-1-(2-hydroxyethyl)-3-piperidyl]amino]oxazolo[4,5-b]pyridin-5-yl]-3-methyl-phenol] | 0.0021 |
| CN1CCC[C@@H](Nc2nc3nc(-c4c(O)cc(Cl)cc4CO)ccc3o2)C1 [Example 94, 5-Chloro-3-(hydroxymethyl)-2-[2-[[(3R)-1-methyl-3-piperidyl]amino]oxazolo[4,5-b]pyridin-5-yl]phenol] | 0.0119 |
| Cc1cc(Cl)cc(O)c1-c1ccc2oc(N[C@@H]3CCCN(CCCO)C3)nc2n1 [Example 95, 5-Chloro-2-[2-[[(3R)-1-(3-hydroxypropyl)-3-piperidyl]amino]oxazolo[4,5-b]pyridin-5-yl]-3-methyl-phenol] | 0.0112 |
| COCCCN1CCC[C@@H](Nc2nc3nc(-c4c(C)cc(Cl)cc4O)ccc3o2)C1 [Example 96, 5-Chloro-2-[2-[[(3R)-1-(3-methoxypropyl)-3-piperidyl]amino]oxazolo[4,5-b]pyridin-5-yl]-3-methyl-phenol] | 0.0561 |
| Cc1cc(Cl)cc(O)c1-c1ccc2oc(N[C@@H]3CCCN(CC(C)O)C3)nc2n1 (stereo partly drawn) [Example 97, 5-Chloro-3-methyl-2-[2-[[(3R)-1-(2-hydroxypropyl)-3-piperidyl]amino]oxazolo[4,5-b]pyridin-5-yl]phenol] | 0.0939 |
| Cc1cc(Cl)cc(O)c1-c1ccc2oc(N(CCO)[C@@H]3CCCN(C)C3)nc2n1 [Example 98, 5-Chloro-2-[2-[2-hydroxyethyl-[(3R)-1-methyl-3-piperidyl]amino]oxazolo[4,5-b]pyridin-5-yl]-3-methyl-phenol] | 0.0111 |
| CCN1CC[C@@H](F)[C@@H](Nc2nc3nc(-c4c(C)cc(Cl)cc4O)ccc3o2)C1 [Example 99A, 5-Chloro-2-[2-[[(3S,4R)-1-ethyl-4-fluoro-3-piperidyl]amino]oxazolo[4,5-b]pyridin-5-yl]-3-methyl-phenol] | 0.0019 |
| COCc1cc(Cl)cc(O)c1-c1ccc2oc(N[C@@H]3C[C@H](O)CN(C)C3)nc2n1 [Example 100, (3S,5R)-5-[[5-[4-Chloro-2-hydroxy-6-(methoxymethyl)phenyl]oxazolo[4,5-b]pyridin-2-yl]amino]-1-methyl-piperidin-3-ol] | 0.0184 |
| CCN1CCC[C@@H](Nc2nc3nc(-c4c(C)cc(C(F)(F)F)cc4O)cc(N4CC(O)C4)c3o2)C1 [Example 101, 1-[2-[[(3R)-1-Ethyl-3-piperidyl]amino]-5-[2-hydroxy-6-methyl-4-(trifluoromethyl)phenyl]-oxazolo[4,5-b]pyridin-7-yl]azetidin-3-ol] | 0.006 |
| CC(=O)c1cc(-c2c(C)cc(C(F)(F)F)cc2O)nc2nc(N[C@@H]3CCCN(C)C3)oc12 [Example 102, 1-[5-[2-Hydroxy-6-methyl-4-(trifluoromethyl)phenyl]-2-[[(3R)-1-methyl-3-piperidyl]amino]oxazolo[4,5-b]pyridin-7-yl]ethanone;2,2,2-trifluoroacetic acid] | 0.0065 |
| CCN1CCC[C@@H](Nc2nc3nc(-c4c(C)cc(C(F)(F)F)cc4O)cc(NC)c3o2)C1 [Example 103, 2-[2-[[(3R)-1-Ethyl-3-piperidyl]amino]-7-(methylamino)oxazolo[4,5-b]pyridin-5-yl]-3-methyl-5-(trifluoromethyl)phenol] | 0.0046 |
| CCN1CCC[C@@H](Nc2nc3nc(-c4c(C)cc(C(F)(F)F)cc4O)cc(OC)c3o2)C1 [Example 104, 2-[2-[[(3R)-1-Ethyl-3-piperidyl]amino]-7-methoxy-oxazolo[4,5-b]pyridin-5-yl]-3-methyl-5-(trifluoromethyl)phenol] | 0.0019 |
| Cc1cc(C(F)(F)F)cc(O)c1-c1cc(C(C)(C)O)c2oc(N[C@@H]3CCCN(C)C3)nc2n1 [Example 105, 2-[7-(1-Hydroxy-1-methyl-ethyl)-2-[[(3R)-1-methyl-3-piperidyl]amino]oxazolo[4,5-b]pyridin-5-yl]-3-methyl-5-(trifluoromethyl)phenol;2,2,2-trifluoroacetic acid] | 0.0089 |
